These results are taken from patent US5674878A, “Anellated dihydropyridines and the use thereof for the production of pharmaceutical preparations” (Boehringer Ingelheim KG, priority 1992, dated 1997).

The structures appear in SMILES notation.

In one test the test system is unselective cation channels (UCC). The experiment in a line: Thapsigargin (0.1 μM) stimulated Ca^2+ entry through unselective cation channels in fura-2-charged RBL-hm 1 cells. The following applies: RBL-hm 1 cells, Thapsigargin (0.1 μM) stimulation, 10 μM test substance (Table 21). Format: cell-based, rat. An excerpt: As a measurement of the cell activation or as a measurement of the inhibition thereof by UCC blockers, the kinetics of the cytoplasmic calcium ion concentration in fura-2-charged cells is quantified fluorometrically using the method described by GRYNKIEWICZ et al. (1985).
Consequently the Ca^2+ -stores are rapidly depleted. As described by J. PUTNEY (Calcium, 11, 611-624, 1990) the depletion of these stores constitutes the physiological stimulation for opening up unselective cation channels in the cell membrane. The result of this is a massive influx of Na^+ and Ca^2+ into the cell. Because of these properties, Thapsigargin is suitable as an indirect stimulator for agonist- and IP3-independent opening up of the unselective cation channels.
The functional endothelin antagonism of the substances according to the invention is mediated through a blockade of the unselective cation channels. Consequently, detection of a functional Thapsigargin-antagonism on RBL-hm1 cells is also a suitable screening method for functional endothelin antagonists.
For screening purposes, fura-2-charged adhesive RBL-hm 1 cells are stimulated with 0.1 μM Thapsigargin in a Ca^2+ -free incubation medium. After 4 minutes, extracellular Ca^2+ is restored to a concentration of 1.5 mM and, using the fura-2-fluorescence, the excessive increase in the cytoplasmic Ca^2+ -concentration caused by a massive transmembranal Ca^2+ -entry through unselective cation channels is recorded.
This entry is to be inhibited solely by unselective cation channel blockers in a dosage-dependent manner. Neither conventional calcium antagonists nor specific blockers of agonists which stimulate the IP3 -turnover are able to inhibit the transmembranal Ca^2+ -entry triggered indirectly by Thapsigargin. The compounds of the present invention are distinguished by their inhibition of UCC.
The fluorometric calcium measurement in the cytoplasm of individual adhering RBL-hm1 cells is carried out analogously to the method described by KUDO and OGURA (1986) for neuronal cells. An AXIOVERT 35 fluorescence microscope made by ZEISS is used in conjunction with an imaging system made by HAMAMATSU, consisting of the ICMS-image processing system, residual light camera with control unit and image intensifier DVS 3000.
The kinetics of the cytoplasmic Ca^2+ -concentration is recorded continuously as a concentration/time curve after the cell activation stimulated by Thapsigargin (0.1 μM). The curves of two activated cell cultures are compared in the presence and absence of 10 μM test substance. The area under these curves (area under the curve=AUC) is integrated and recorded as a measurement of cell activation. The inhibitory potency of the UCC-blockers tested is determined using the following equation: [formula] %H=the percentage inhibition of the calcium entry through unselective cation channels which is stimulated and inhibited by 10 μM of test substance.
AUCinh =area under the curve recorded in the presence of the stimulant plus 10 μM inhibitory test substance.
AUCcontrol =area under the curve which is recorded only after the addition of the stimulant.
The percentage inhibition of UCC after Thapsigargin stimulation (0.1 μM Thapsigargin) in RBL-hm 1 cells is given. The uniform concentration of the test substances is 10^-5 mol).
As for `COc1cc2c(cc1OC)C(C(C(=O)N1CCCC1)c1ccccc1)=NCC2` (centres unmarked) [41 (Structure I)], the “% Inhibition” value is listed as 57.22%. For `COc1cc2c(cc1OC)C(C(C(=O)NCCc1ccc(OC)c(OC)c1OC)c1ccccc1)=NCC2` (centres unmarked) [B], the “% Inhibition” value came out at 72.35%.

Regarding `COc1cc2c(cc1OC)C(C(C(=O)NCC(c1ccccc1)c1ccccc1)c1ccccc1)=NCC2` (centres unmarked) [C], the “% Inhibition” value is reported as 63.45%. In the case of `COc1cc2c(cc1OC)C(C(C(=O)NCCc1cccc(C(F)(F)F)c1)c1ccccc1)=NCC2` (centres unmarked) [E], the “% Inhibition” value amounted to 81.89%.

`COc1cc2c(cc1OC)C(C(C(=O)NCc1c(F)cccc1OC)c1ccccc1)=NCC2` (centres unmarked) [F]: the “% Inhibition” value came to 48.01%.

`COc1cc2c(cc1OC)C(=C(C(=O)NCCc1cccc(OC)c1OC)c1ccccc1)NCC2` [G]: the “% Inhibition” value is 57.52%. On to `COc1cc2c(cc1OC)C(=C(C(=O)NC(C)COc1ccccc1)c1ccccc1)NCC2` (centres unmarked) [H], for which the “% Inhibition” value came out at 57.06%. Take `COc1cc2c(cc1OC)C(C(C(=O)NCCc1ccsc1)c1ccccc1)=NCC2` (centres unmarked) [O]: the “% Inhibition” value was 63.32%. For `COc1cc2c(cc1OC)C(=C(C(=O)NC(Cc1ccccc1)c1ccccc1)c1ccccc1)NCC2` (centres unmarked) [Q], the “% Inhibition” value is listed as 64.28%. On the same count and under the same terms, to `COCCNC(=O)C(=C1NCCc2cc(OC)c(OC)cc21)c1ccccc1` [compound 17] belongs 52.53%; to `COCCCNC(=O)C(=C1NCCc2cc(OC)c(OC)cc21)c1ccccc1` [compound 18], 57.53%.

On to `COc1cc2c(cc1OC)C(=C(C(=O)NCCCN(C)C)c1ccccc1)NCC2` [compound 20], for which the “% Inhibition” value was found to be 57.38%. As to `COc1cc2c(cc1OC)C(C(C(=O)Nc1cccnc1)c1ccccc1)=NCC2` (centres unmarked) [compound 33], the “% Inhibition” value is on record as 60.55%.

Consider `COc1cc2c(cc1OC)C(C(C(=O)N(C)C)c1ccccc1)=NCC2` (centres unmarked) [compound 36], for which the “% Inhibition” value came to 52.19%.

For the compound `CCN(CC)C(=O)C(C1=NCCc2cc(OC)c(OC)cc21)c1ccccc1` (centres unmarked) [compound 37], the “% Inhibition” value is listed as 75.77%. Consider `COc1cc2c(cc1OC)C(C(C(=O)N1CCOCC1)c1ccccc1)=NCC2` (centres unmarked) [compound 39], for which the “% Inhibition” value stood at 48.62%. Consider `COc1cc2c(cc1OC)C(C(C(=O)N1CCSCC1)c1ccccc1)=NCC2` (centres unmarked) [compound 40], for which the “% Inhibition” value was found to be 64.99%. As for `COc1cc2c(cc1OC)C(=C(C(=O)N1CCN(Cc3ccccc3)CC1)c1ccccc1)NCC2` [compound 42], the “% Inhibition” value is listed as 84.83%.

`COc1cc2c(cc1OC)C(C(C(=O)N1CCN(C)CC1)c1ccccc1)=NCC2` (centres unmarked) [compound 43]: the “% Inhibition” value came to 48.69%. On to `O=C(NCCc1ccc2c(c1)OCO2)C(=C1NCCc2cc3c(cc21)OCO3)c1ccccc1` [compound 46], for which the “% Inhibition” value is given as 68.06%. Regarding `O=C(NCCN1CCOCC1)C(=C1NCCc2cc3c(cc21)OCO3)c1ccccc1` [compound 48], the “% Inhibition” value was 61.34%. As to `COc1ccc(CCNC(=O)C(=C2NCCc3c2[nH]c2ccccc32)c2ccccc2)cc1OC` [compound 83], the “% Inhibition” value came out at 66.76%. On to `O=C(NCCN1CCOCC1)C(=C1NCCc2c1[nH]c1ccccc21)c1ccccc1` [compound 89], for which the “% Inhibition” value is listed as 53.38%.

With `COc1cc2c(cc1OC)C(C(C(=O)NCCC(c1ccccc1)c1ccccc1)c1ccccc1)=NCC2` (centres unmarked) [compound 101], the “% Inhibition” value is given as 59.62%. Turning to `COc1cc2c(cc1OC)C(C(C(=O)NCCc1ccccc1C)c1ccccc1)=NCC2` (centres unmarked) [compound 102], the “% Inhibition” value is listed as 80.77%.

Take `COc1cc(CCNC(=O)C(C2=NCCc3cc(OC)c(OC)cc32)c2ccccc2)cc(OC)c1` (centres unmarked) [compound 104]: the “% Inhibition” value was 54.67%. For the compound `COc1cccc(CCNC(=O)C(C2=NCCc3cc(OC)c(OC)cc32)c2ccccc2)c1` (centres unmarked) [compound 105], the “% Inhibition” value is on record as 45.09%. Take `COc1cc2c(cc1OC)C(C(C(=O)NCc1cc(C)ccc1C)c1ccccc1)=NCC2` (centres unmarked) [compound 106]: the “% Inhibition” value turned out to be 65.69%. For `COc1cc2c(cc1OC)C(C(C(=O)NCCCc1ccc(OC)c(OC)c1OC)c1ccccc1)=NCC2` (centres unmarked) [compound 108], the “% Inhibition” value is listed as 44.45%.

With `COc1cc2c(cc1OC)C(=C(C(=O)NCCc1ccc(OC)c(C)c1C)c1ccccc1)NCC2` [compound 109], the “% Inhibition” value amounted to 74.18%.

Consider `CCOc1ccccc1CCCNC(=O)C(C1=NCCc2cc(OC)c(OC)cc21)c1ccccc1` (centres unmarked) [compound 115], for which the “% Inhibition” value turned out to be 75.53%. Turning to `COc1cc2c(cc1OC)C(=C(C(=O)NCC13CC4CC(CC(C4)C1)C3)c1ccccc1)NCC2` [compound 132], the “% Inhibition” value was 65.14%. The same measure, in the same setting: to `COc1cc(N=[N+]=[N-])ccc1CCNC(=O)C(C1=NCCc2cc(OC)c(OC)cc21)c1ccccc1` (centres unmarked) [compound 133] belongs 68.15%.

The same test, now with this note: Table 16; %inhibition, 10 μM test substance.
Turning to `O=C(NCCc1cccc(C(F)(F)F)c1)C(C1=NCCc2cc(OCc3ccccc3)c(Cl)cc21)c1ccccc1` (centres unmarked) [drawing 223], the “%” value came out at 32.90%.

The same test, now with this note: Table 17; 10 μM test substance.
Regarding `COc1cc2c(cc1OC)C(C(C(=O)NCCC(C)(C)C)c1ccccc1)=NCC2` (centres unmarked), the “percent inhibition of Ca2+ entry” value is on record as 80.97%. Regarding `COc1cc2c(cc1OC)C(C(C(=O)NCC13CC4CC(CC(C4)C1)C3)c1ccccc1)=NCC2` (centres unmarked) [HNCH2-1-Adam.], the “percent inhibition of Ca2+ entry” value is given as 65.1%. As to `COc1cc(N=[N+]=[N-])ccc1CCNC(=O)C(C1=NCCc2cc(OC)c(OC)cc21)c1ccccc1` (centres unmarked) [drawing 231], the “percent inhibition of Ca2+ entry” value is 68.2%.

The same test, now with this note: Table 20; 10 μM test substance.
Consider `COc1cc2c(cc1O)CCN=C2C(C(=O)N(CCc1ccc(OC)c(OC)c1OC)CCc1ccc(OC)c(OC)c1OC)c1ccccc1` (centres unmarked), for which the “percent inhibition of Ca2+ entry” value stood at 86.70%.

Turning to `COc1cc2c(cc1OCc1ccccc1)CCN=C2C(C(=O)NCCC(C)(C)C)c1ccccc1` (centres unmarked) [NHCH2 CH2C(CH3)3], the “percent inhibition of Ca2+ entry” value is recorded as 61.85%. In the case of `O=C(NCCc1cccc(C(F)(F)F)c1)C(C1=NCCc2cc(OCc3ccccc3)c(Cl)cc21)c1ccccc1` (centres unmarked) [drawing 274], the “percent inhibition of Ca2+ entry” value is 32.9%.

Another test deals with Ca^2+-ATPase of intracellular IP3-sensitive Ca^2+-stores.
Experiment: not given
Conditions: in words; cited from earlier work.
As to `C/C=C(/C)C(=O)O[C@H]1C(C)=C2[C@H]([C@@H]1OC(=O)CCCCCCC)[C@@](C)(OC(C)=O)C[C@H](OC(=O)CCC)[C@@]1(O)[C@H]2OC(=O)[C@@]1(C)O` [THAPSIGARGIN], the “inhibition of Ca^2+-ATPase” value was “selectively and irreversibly inhibits”.

For another test, the system named is unselective cation channels (UCC). The experiment in a line: Thapsigargin (0.1 μM) stimulated Ca^2+ entry through unselective cation channels in fura-2-charged RBL-hm 1 cells. Type of test: cell-based, rat. The following applies: Table 17.
With `COc1cc2c(cc1OC)C(C(C(=O)NCCC(C)(C)C)c1ccccc1)=NCC2` (centres unmarked), the IC50 is 7.57 µM.

The same test, now with this note: Table 20.
For `COc1cc2c(cc1O)CCN=C2C(C(=O)N(CCc1ccc(OC)c(OC)c1OC)CCc1ccc(OC)c(OC)c1OC)c1ccccc1` (centres unmarked), the IC50 was found to be 3.47 µM. In other words, the single-digit micromolar range.

In the next test the test system is RBL-2H3-cells. The experiment in a line: DNP-BSA antigen-induced activation of sensitised RBL-2H3 cells. Type of test: cell-based. Conditions: Rattus norvegicus, read-out: inhibition of the antigen-induced cell activation. The procedure:
Individual RBL-2H3-cells (a tumour cell line related to the mast cells) adhering to glass slides are used.
The cultivation and attachment of the RBL-2H3-cells are carried out by the method described by HIDE and BEAVEN (1991). In order to sensitise the adhesive RBL-2H3-cells the cells are incubated for 2 hours at ambient temperature with a 1:2000 diluted commercial gammaglobulin E-solution against a dinitrophenol-bovine serum albumin complex (DNP-BSA-antigen). The cells are then washed. By the addition of 0.1 ml of DNP-BSA-solution (10 μg/ml) there is a massive immunological cell activation which is mediated by a cytoplasmic Ca^2+ -overload. The fluorometric calcium measurement in the cytoplasm of individual adhering RBL-2H3-cells is carried out analogously to the method described by KUDO and OGURA (1986) for neuronal cells, which is also explained hereinbefore in this specification.
`O=C(O)c1cc(=O)c2c(OCC(O)COc3cccc4oc(C(=O)O)cc(=O)c34)cccc2o1` [chromoglycate]: the inhibition at 10 µM was roughly 50%.

Broadly, the % Inhibition is how much of the control response was suppressed. By IC50 is commonly meant the concentration at which inhibition is half-maximal. A word on the inhibition: it is the change of the read-out against control, counted positive when it falls.
